Source: paper PMC7238232, “Acamprosate Is a Substrate of the Human Organic Anion Transporter (OAT) 1 without OAT3 Inhibitory Properties: Implications for Renal Acamprosate Secretion and Drug–Drug Interactions” (Pharmaceutics, 2020)
Values joined by “and” are separate entries in the source; they are usually repeats but may differ in a detail not shown here. Identical values can stand only once. Like-named read-outs stand apart in the source and are kept apart here.

What was measured:
human OAT1 = conditions: cited from earlier work; for Km: read-out: Km of other OAT1 substrates
[1] = probenecid, oral, cited from earlier work
OAT3 = target: T1, OAT3 (Homo sapiens, UniProt Q8TCC7); assay: [3H]-E3S uptake and its inhibition in HEK293-Flp-In OAT3 cells; format: cell-based; conditions: 0.02 µM [3H]-E3S; 200 µM E3S, 300 µM probenecid, 1000 or 10,000 µM acamprosate; Lab. 2
T1 sequence (Q8TCC7 1-542): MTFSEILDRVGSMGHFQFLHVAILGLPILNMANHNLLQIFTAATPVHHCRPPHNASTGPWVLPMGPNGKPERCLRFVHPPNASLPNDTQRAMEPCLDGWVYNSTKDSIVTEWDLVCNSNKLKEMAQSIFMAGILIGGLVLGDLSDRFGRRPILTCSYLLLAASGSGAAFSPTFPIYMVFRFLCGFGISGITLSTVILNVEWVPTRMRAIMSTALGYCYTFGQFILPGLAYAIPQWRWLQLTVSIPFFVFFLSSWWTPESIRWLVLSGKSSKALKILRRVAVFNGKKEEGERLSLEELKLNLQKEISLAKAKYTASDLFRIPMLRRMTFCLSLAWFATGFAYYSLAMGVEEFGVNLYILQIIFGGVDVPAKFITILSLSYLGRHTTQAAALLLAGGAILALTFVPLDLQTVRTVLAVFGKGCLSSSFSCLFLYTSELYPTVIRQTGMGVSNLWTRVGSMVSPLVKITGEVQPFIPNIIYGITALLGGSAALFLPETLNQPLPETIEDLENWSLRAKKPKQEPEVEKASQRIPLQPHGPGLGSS
Method: All uptake experiments were performed on 24- or 96-well plates. Before the experiment initiation, the cells were incubated with either 500 or 200 µL∙well^−1 prewarmed buffer for 10 min at 37 °C in a microplate incubator (VWR International AB, Stockholm, Sweden), without shaking. […] The experiment was stopped by adding 200 µL∙well^−1 of ice-cold buffer and subsequent rinse three times with the same amount of buffer. In Lab. 1 the sample analysis of the OAT1/OAT3/mock studies consisted in removing the rinsing buffer and lysing the cells with 70 µL 1M NaOH, following by incubation for 60 min at 37 °C and 100 rpm. A total of 50 µL of cell lysate from each well was transferred to 96-well Luma plates bottom coated with dry scintillant. Then, 2∙20 µL of each donor and three 50 µL blank samples were applied on the same plate. The dry plates were covered with transparent seals and analyzed using a TopCount NXT Microplate Scintillation and Luminescence Counter (Perkin Elmer, Waltham, MA, USA). The remaining 20 µL cell lysate was neutralized with 20 µL 1M HCl∙well^−1, samples were mixed thoroughly and the total protein content in all the wells was measured using a BCA protein assay kit, microplate method, and a Tecan Safire II fluorometer (Tecan Austria GmbH, Grödig, Austria). For the experiments in Lab. 2, the cells were lysed by adding 200 µL 0.1% Triton X-100 and incubated for 5 min at 37 °C and 100 rpm. […] The total protein content was measured by using a BCA protein assay kit and a FLUOStar Omega fluorescence microplate reader (BMG Labtech, Ortenberg, Germany). The protein assay for the OAT3 and mock cell lines was performed in four independent wells of each cell line, seeded and treated in the same manner as the cells used in the uptake assay. For all the OAT1, OAT3, and mock isotope uptake studies, the radiolabelled tracer accumulation (pmol) in each well was calculated by first determining the activity of the isotope (DPM∙pmol^−1) from the radioactivity (DPM) of the donor sample divided by the theoretical isotope concentration (pmol), then dividing the total radioactivity in the well (DPM) to the specific activity of the isotope (DPM∙pmol^−1).
A range of preincubation solutions was prepared at the same concentrations of acamprosate applied in the inhibition assays. Acamprosate was dissolved in HBSS buffered with 10 mM HEPES and the pH was adjusted to 7.40 ± 0.01. The preincubation solutions were prewarmed to 37 °C and applied to the corresponding cells after removing the cell growth medium. The preincubation was done for 3 h, at 37 °C, without shaking. After the preincubation, the solutions were removed, and the inhibition experiment was performed as described in the Section 2.6.
The obtained intracellular amounts (pmol) were normalized to the assay time (min) and cell surface area (cm^2) or protein amount (mg protein) to obtain a term hereafter referred to as uptake rate. […] Assuming competitive interaction, equilibrium dissociation constants, Ki, were calculated from the IC50 value for each substrate/inhibitor pair, at substrate Km, using the Cheng–Prusoff equation [24].

[2] = Clinical pharmacokinetics in humans (literature); conditions: probenecid, oral, calculated from Cmax and fu
OAT = test system: OAT; set-up: method as in PMID 23085876; conditions: OAT mediated DDI by probenecid, compared to control; cited from earlier work
HEK293-Flp-In mock cells [3] = assay: Control uptake studies in HEK293-Flp-In mock cells; conditions: for effect on uptake of [3H]-E3S in mock cells: 0.02 µM [3H]-E3S, 200 µM E3S, 300 µM or 0.2–1022 µM probenecid, 10,000 µM acamprosate, Lab. 2; for effect on uptake of [14C]-PAH in mock cells: 9.5 µM [14C]-PAH, 200 µM PAH, 300 µM or 0.02–1022 µM probenecid, acamprosate
Method: All uptake experiments were performed on 24- or 96-well plates. Before the experiment initiation, the cells were incubated with either 500 or 200 µL∙well^−1 prewarmed buffer for 10 min at 37 °C in a microplate incubator (VWR International AB, Stockholm, Sweden), without shaking. […] The experiment was stopped by adding 200 µL∙well^−1 of ice-cold buffer and subsequent rinse three times with the same amount of buffer. […] A total of 50 µL of cell lysate from each well was transferred to 96-well Luma plates bottom coated with dry scintillant. Then, 2∙20 µL of each donor and three 50 µL blank samples were applied on the same plate. The dry plates were covered with transparent seals and analyzed using a TopCount NXT Microplate Scintillation and Luminescence Counter (Perkin Elmer, Waltham, MA, USA). The remaining 20 µL cell lysate was neutralized with 20 µL 1M HCl∙well^−1, samples were mixed thoroughly and the total protein content in all the wells was measured using a BCA protein assay kit, microplate method, and a Tecan Safire II fluorometer (Tecan Austria GmbH, Grödig, Austria). […] The total protein content was measured by using a BCA protein assay kit and a FLUOStar Omega fluorescence microplate reader (BMG Labtech, Ortenberg, Germany). The protein assay for the OAT3 and mock cell lines was performed in four independent wells of each cell line, seeded and treated in the same manner as the cells used in the uptake assay. For all the OAT1, OAT3, and mock isotope uptake studies, the radiolabelled tracer accumulation (pmol) in each well was calculated by first determining the activity of the isotope (DPM∙pmol^−1) from the radioactivity (DPM) of the donor sample divided by the theoretical isotope concentration (pmol), then dividing the total radioactivity in the well (DPM) to the specific activity of the isotope (DPM∙pmol^−1).

HEK293-Flp-In OAT1 cells = assay: CellTiter-Glo cell viability assay, OAT1 transfected cells
human kidney slices = test system: human kidney slices; set-up: method as in PMID 17255469; conditions: read-out: Km of PAH; cited from earlier work
HEK293-Flp-In OAT3 cells = assay: CellTiter-Glo cell viability assay, OAT3 transfected cells
HEK293-Flp-In mock cells [4] = assay: CellTiter-Glo cell viability assay, mock cells
[5] = substrate: CC(=O)NCCCS(=O)(=O)O; assay: Acamprosate intracellular uptake and inhibition of uptake in HEK293-Flp-In OAT1 cells (LC/MS-MS); format: cell-based, human; conditions: other: HEK293-Flp-In OAT1 cells, 10 min, pH 7.4, Lab. 1
[6] = 3 h, 1000 µM p-aminohippuric acid, 200 µM estrone-3-sulfate (Figure 8A)

Molecule: CN(Cc1cnc2nc(N)nc(N)c2n1)c1ccc(C(=O)N[C@@H](CCC(=O)O)C(=O)O)cc1 [methotrexate]
- Km (human OAT1): 554 to 724 µM

Molecule: CCCN(CCC)S(=O)(=O)c1ccc(C(=O)O)cc1 [probenecid]
- Cmax ([1]; 500 mg): 124 ± 30 µM
- fu, fraction unbound in plasma ([1]; 500 mg): 0.07 [53]
- Cmax ([1]; 1000 mg): 244 ± 94 µM
- fu, fraction unbound in plasma ([1]; 1000 mg): 0.11 [53]
- Cmax ([1]; 2000 mg): 521 ± 166 µM
- fu, fraction unbound in plasma ([1]; 2000 mg): 0.17 [53]
- effect on uptake of [3H]-E3S in OAT3 expressing cells (OAT3): significantly decreased
- Cmax,u ([2]; 500 mg): 8.66 ± 2.09 µM
- Cmax,u ([2]; 1000 mg): 26.83 ± 10.37 µM
- Cmax,u ([2]; 2000 mg): 88.53 ± 28.24 µM
- change in AUC of other inhibited drugs (OAT): 1.1–2.4 fold
- change in CLR of other inhibited drugs (OAT): 0.3–0.7 fold
- effect on uptake of [3H]-E3S in mock cells (HEK293-Flp-In mock cells [3]): no inhibition
- effect on uptake of [3H]-E3S in mock cells (HEK293-Flp-In mock cells [3]; listed as Probenecid): no inhibitory effect
- effect on uptake of [14C]-PAH in mock cells (HEK293-Flp-In mock cells [3]; Lab. 1): no effect
- effect on uptake of [14C]-PAH in mock cells (HEK293-Flp-In mock cells [3]; Lab. 1, listed as Probenecid): no inhibitory effect
- effect on acamprosate uptake in mock cells (HEK293-Flp-In mock cells [3]; 200 µM acamprosate, 0.02–1022 µM probenecid, Lab. 1): no inhibitory effect

Molecule: Nc1nc2c(ncn2COCCO)c(=O)[nH]1 [acyclovir]
- Km (human OAT1): 342 µM

Molecule: O=S(=O)(O)CCSSCCS(=O)(=O)O [dimesna]
- Km (human OAT1): 636 µM

Molecule: CC(=O)Nc1ccc(O)cc1 [acetaminophen]
- IC50 (human OAT1; read-out: IC50 of other drug substances inhibiting OAT1): 639 µM

Molecule: Nc1nc(O)c2ncn(COC(CO)CO)c2n1 [ganciclovir]
- Km (human OAT1): 896 µM

Molecule: Nc1ccc(C(=O)NCC(=O)O)cc1 [p-aminohippuric acid]
- effect on cell viability (HEK293-Flp-In OAT1 cells; 3 h, 1000 µM p-aminohippuric acid, 200 µM estrone-3-sulfate (Figure 8B)): did not decrease cell viability
- Km (human kidney slices): ~39 µM
- effect on cell viability (HEK293-Flp-In OAT3 cells; [6]): did not decrease cell viability
- effect on cell viability (HEK293-Flp-In mock cells [4]; [6]): did not decrease cell viability
- effect on uptake of [14C]-PAH in mock cells (HEK293-Flp-In mock cells [3]; Lab. 1): no effect
- saturability of dose-dependent substrate uptake in mock cells (HEK293-Flp-In mock cells [3]; same substrate concentrations as in transfected cells, acamprosate 0.33–3300 µM): not saturable

Molecule: CCCCCCCCCCCCOS(=O)(=O)[O-].[Na+] [SDS, sodium dodecyl sulfate]
- decrease in cell viability (HEK293-Flp-In OAT1 cells; 0.5% SDS, 3 h incubation): approximately 50%
- decrease in cell viability (HEK293-Flp-In OAT3 cells; 0.5% SDS, 3 h incubation): more than 95%
- decrease in cell viability (HEK293-Flp-In mock cells [4]; 0.5% SDS, 3 h incubation): more than 95%

B1: OAT1 (Homo sapiens) (protein)
chain: MAFNDLLQQVGGVGRFQQIQVTLVVLPLLLMASHNTLQNFTAAIPTHHCRPPADANLSKNGGLEVWLPRDRQGQPESCLRFTSPQWGLPFLNGTEANGTGATEPCTDGWIYDNSTFPSTIVTEWDLVCSHRALRQLAQSLYMVGVLLGAMVFGYLADRLGRRKVLILNYLQTAVSGTCAAFAPNFPIYCAFRLLSGMALAGISLNCMTLNVEWMPIHTRACVGTLIGYVYSLGQFLLAGVAYAVPHWRHLQLLVSAPFFAFFIYSWFFIESARWHSSSGRLDLTLRALQRVARINGKREEGAKLSMEVLRASLQKELTMGKGQASAMELLRCPTLRHLFLCLSMLWFATSFAYYGLVMDLQGFGVSIYLIQVIFGAVDLPAKLVGFLVINSLGRRPAQMAALLLAGICILLNGVIPQDQSIVRTSLAVLGKGCLAASFNCIFLYTGELYPTMIRQTGMGMGSTMARVGSIVSPLVSMTAELYPSMPLFIYGAVPVAASAVTVLLPETLGQPLPDTVQDLESRWAPTQKEAGIYPRKGKQTRQQQEHQKYMVPLQASAQEKNGL
notes: expressed in transfected cells; host or cells: HEK293-Flp-In
- Km [5]: 700 µM and 698 ± 192 µM
